From PMC6368337, “GluClR-mediated inhibitory postsynaptic currents reveal targets for ivermectin and potential mechanisms of ivermectin resistance” (PLoS Pathogens, 2019)

Columns and labels:
α and αβ (1:1) GluClRs = assay: IVM-induced tonic current in heteroculture, α and αβ data pooled; assay type: cell-based, H. contortus; conditions: continuous 5 nM IVM
Experimental: After validating the heterocultures as a reliable preparation for investigating IPSCs mediated by GluClRs, we made synaptic recordings while continuously applying IVM (5 nM) to cells similarly transfected with α and αβ GluClRs. […] Firstly, there was a steady downward deflection in baseline current over the course of the recording that was not different between cells expressing α (Fig 5A) and αβ (1:1, Fig 5B) GluClRs. […] Changes to the kinetic properties of IPSCs were also observed upon IVM application (Fig 5C–5G). These were analysed 15 minutes after the commencement of the IVM application to ensure that the effects had equilibrated. […] The decay time constant for α GluClRs slowed from 40 ± 2 ms to 100 ± 3 ms (n = 6) and for αβ GluClRs from 17 ± 2 ms to 72 ± 4 ms (n = 6, Fig 5E). The increase in activation times were from 4.6 ± 0.7 ms to 19 ± 1 ms for α GluClRs and from 3.0 ± 0.3 ms to 10 ± 1 ms for the αβ heteromers (Fig 5F). […] A comparison of the magnitude changes of IPSC parameters was also made between the two receptor isoforms.
cDNAs encoding the α (avr-14b) (pcDNA 3.1+) or β (pUNIV) GluClR subunits of H. contortus were nuclear injected into oocytes (NASCO, WI USA) or transfected into HEK293AD cells (CellBank Australia) using a calcium phosphate-DNA co-precipitate method. […]

β GluClRs = β GluClRs (Haemonchus contortus, UniProt P91730); assay: Single channel recording, outside-out patches, β GluClRs; assay type: cell-based, H. contortus; conditions: 2 μM glutamate plus 5 nM IVM
Chain of β GluClRs (P91730 19-432): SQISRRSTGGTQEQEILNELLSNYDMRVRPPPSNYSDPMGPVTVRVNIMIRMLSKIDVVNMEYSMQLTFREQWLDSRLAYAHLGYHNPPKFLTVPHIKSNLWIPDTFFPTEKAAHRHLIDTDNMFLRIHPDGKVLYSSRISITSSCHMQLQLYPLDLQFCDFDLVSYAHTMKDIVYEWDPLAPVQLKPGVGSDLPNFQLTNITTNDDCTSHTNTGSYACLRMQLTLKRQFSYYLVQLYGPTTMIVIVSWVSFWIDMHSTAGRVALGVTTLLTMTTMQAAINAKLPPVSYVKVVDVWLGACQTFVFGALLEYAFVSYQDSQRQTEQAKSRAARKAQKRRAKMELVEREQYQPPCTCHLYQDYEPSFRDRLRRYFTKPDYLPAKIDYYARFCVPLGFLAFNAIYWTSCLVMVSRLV
Text: To explore whether a similar mechanism applies to β-containing GluClRs, we recorded single receptor currents in excised patches from cells transfected with either the α and β subunits (1:1) or the β subunit alone. […] By contrast, patches from cells transfected with the β subunit alone invariably opened to an amplitude of 0.4 pA (Fig 6C). Amplitude histograms confirmed two amplitude levels for αβ GluClRs and a single amplitude for the β GluClRs (Fig 6D). […] We infer that the αβ GluClRs that open to 0.7 pA likely contain a greater proportion of β subunits. This is consistent with β GluClRs having the smallest amplitude and α GluClRs having the greatest amplitude (1.8 pA) under similar recording conditions. The calculated conductance values for the corresponding amplitudes for αβ GluClRs was 15.2 pS and 8.9 pS and for the β GluClRs was 5.1 pS.
Single-channel currents were recorded from outside-out excised patches at a clamped potential of −70 mV. The single channel conductance was calculated by dividing the mean current by the net driving force at a clamped potential of ‐70 mV, after accounting for reversal and liquid junction potentials. Excised patches were continuously perfused via a gravity-fed double-barrelled glass tube, which contained extracellular bath solution containing (in mM), 140 NaCl, 5 KCl, 1 MgCl2, 2 CaCl2, 10 HEPES, and 10 D-glucose and titrated to pH 7.4. Glutamate and IVM were dissolved in this extracellular solution. Recording electrodes were pulled from borosilicate glass (G150F-3; Warner Instruments), coated with a silicone elastomer (Sylgard-184; Dow Corning) and heat-polished to a final tip resistance of 4–15 MΩ when filled with an intracellular solution containing (in mM) 145 CsCl, 2 MgCl2, 2 CaCl2, 10 HEPES, and 5 EGTA, pH 7.4. […] A 10 mM stock of IVM (Sigma-Aldrich) was dissolved in 100% DMSO and kept frozen at ‐20°C. Fresh working stocks of IVM at 5 nM were prepared by dissolving the appropriate quantity directly in extracellular solution. 100% DMSO when dissolved in extracellular solution alone at the same concentration as was present in working solutions containing 5 nM IVM had no effect on patches excised from cells transfected with GluClRs or from untransfected cells.
Currents were recorded using an Axopatch 200B amplifier (Molecular Devices), filtered at 5 kHz and digitized at 20 kHz using Clampex (pClamp 10 suite, Molecular Devices) via a Digidata 1440A digitizer.
Group data were analysed in SigmaPlot 13.0 using one-way ANOVAs, where p < 0.05 was taken as the significance threshold and expressed as mean ± SEM. Tests for normally distributed data are built into the SigmaPlot software. Confocal images were captured and analysed with Zen 2012 SP2 (Zeiss) software. Oocyte concentration-response data were fit to a Hill equation to obtain an EC50 and Hill co-efficient for each oocyte recording. These parameters were then averaged across multiple oocyte experiments of the same type. Single channel recordings were analysed in QuB software. […] Patches yielded between 30–250 individual active periods. […] The selected critical times eliminated periods of receptor desensitisation while retaining singe receptor active periods. Mean active period duration and intra-activation open probability was estimated from each patch. Group means were obtained by averaging across multiple patches for each recording condition.

αβ (1:1) GluClRs = αβ (1:1) GluClRs (Haemonchus contortus, UniProt O46124+P91730); assay: IPSC recording in HEK293-neuron heteroculture, αβ (1:1) GluClRs; assay type: cell-based, H. contortus; conditions: 5 nM IVM
Chain of αβ (1:1) GluClRs (P91730 19-432): as above
Chain of αβ (1:1) GluClRs (O46124 entry or part of it): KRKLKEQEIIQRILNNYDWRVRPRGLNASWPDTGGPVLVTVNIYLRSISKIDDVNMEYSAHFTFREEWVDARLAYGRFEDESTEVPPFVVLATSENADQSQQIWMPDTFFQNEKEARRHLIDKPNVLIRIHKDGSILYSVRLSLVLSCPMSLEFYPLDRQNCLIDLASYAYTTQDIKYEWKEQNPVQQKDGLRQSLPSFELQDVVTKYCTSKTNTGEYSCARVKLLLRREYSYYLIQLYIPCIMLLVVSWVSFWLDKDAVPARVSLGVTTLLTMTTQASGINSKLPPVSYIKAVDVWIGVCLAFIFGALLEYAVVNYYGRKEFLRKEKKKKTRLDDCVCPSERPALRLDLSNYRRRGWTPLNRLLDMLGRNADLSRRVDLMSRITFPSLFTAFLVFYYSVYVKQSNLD
Experimental: cDNAs encoding the α (avr-14b) (pcDNA 3.1+) or β (pUNIV) GluClR subunits of H. contortus were nuclear injected into oocytes (NASCO, WI USA) or transfected into HEK293AD cells (CellBank Australia) using a calcium phosphate-DNA co-precipitate method. Synapse formation between neurons and HEK293 cells was promoted by co-transfecting neuroligin 2A or 1B and the cDNA encoding CD4 surface antigen was also added to the transfection mixture so as to identify transfected cells. The oocytes and HEK cells were used for experiments 2–3 days after the introduction of the cDNAs. All experiments were done at room temperature (22 ± 1°C).
Primary neuronal cultures were prepared from cortices of E18 rat embryos, (University of Queensland Biological Services), which were triturated and plated at 100,000 cells per 18-mm poly-D-lysine-coated coverslip in DMEM with 10% fetal bovine serum. After 24 h the entire medium was replaced with Neurobasal medium that included 2% B27 and 1% GlutaMAX supplements. After one week half of this medium was replaced and the neurons were allowed to grow in vitro for 3–5 weeks before introducing the transfected HEK293 cells. Recordings of synaptic currents were done in whole-cell configuration at ‐70 mV using an Axopatch 200B amplifier (Molecular Devices), filtered at 5 kHz and digitized at 20 kHz using Clampex (pClamp 10 suite, Molecular Devices) via a Digidata 1440A digitizer.

Lipophilicity (logP) = assay type: physicochemical

CC[C@H](C)[C@H]1O[C@]2(CC[C@@H]1C)C[C@@H]1C[C@@H](C/C=C(\C)[C@@H](O[C@H]3C[C@H](OC)[C@@H](O[C@H]4C[C@H](OC)[C@@H](O)[C@H](C)O4)[C@H](C)O3)[C@@H](C)/C=C/C=C3\CO[C@@H]4[C@H](O)C(C)=C[C@@H](C(=O)O1)[C@]34O)O2 [IVM, Ivermectin]
tonic current fitted time constant (α and αβ (1:1) GluClRs): 483 ± 72 s
tonic current mean amplitude (α and αβ (1:1) GluClRs): 304 ± 54 pA
intra-activation open probability (PO) (β GluClRs): 0.62 ± 0.04
mean active period duration (β GluClRs): 120 ± 21 ms
IPSC activation (10–90% rise) time (αβ (1:1) GluClRs; 15 minutes): 10 ± 1 ms
peak IPSC amplitude (αβ (1:1) GluClRs; 15 minutes): 124 ± 18 pA
IPSC decay time constant (αβ (1:1) GluClRs; 15 minutes after start of application, −70 mV): 72 ± 4 ms
logP (Lipophilicity (logP)): 5.4
